Experimental data taken from ChEMBL document CHEMBL5257025, “Artemisinin-Derived Dimers: Potent Antimalarial and Anticancer Agents” (J Med Chem, 2016).

Columns and labels:
[1] = tested on: Plasmodium falciparum; experiment: microbe, parasite or virus in culture; details: K1
Description: Antiplasmodial activity against Plasmodium falciparum K1 assessed as inhibition of parasitic growth

[2] = tested on: MCF7; experiment: Antiproliferative activity against human MCF7 cells assessed as reduction in cell viability measured after 48 hrs by SRB assay; type: functional, cell-based; details: MCF7, 48 h
[3] = tested on: BeWo; experiment: Antiproliferative activity against human BeWo cells assessed as reduction in cell viability after 72 hrs by MTT assay; type: functional, cell-based
[4] = tested on: P388; experiment: Antiproliferative activity against mouse P388 cells assessed as cell growth inhibition incubated for 72 hrs by MTT assay; type: functional, cell-based; details: P388, 72 h
[5] = tested on: EL4; experiment: Antiproliferative activity against mouse EL4 cells assessed as cell growth inhibition incubated for 72 hrs by MTT assay; type: functional, cell-based; details: EL4, 72 h
[6] = tested on: HT-29; experiment: cells; details: Homo sapiens, HT-29, 72 h
[7] = tested on: Plasmodium falciparum; experiment: Antimalarial activity against Plasmodium falciparum HB3 assessed as inhibition of malarial growth; type: functional, organism-based
[8] = tested on: Plasmodium falciparum; experiment: Antimalarial activity against Plasmodium falciparum K1 assessed as inhibition of malarial growth; type: functional, organism-based
[9] = tested on: MDA-MB-231; experiment: Antiproliferative activity against human MDA-MB-231 cells assessed as reduction in cell viability measured after 48 hrs by MTT assay; type: functional, cell-based; details: MDA-MB-231, 48 h
[10] = tested on: A549; experiment: cells; details: Homo sapiens, A549, 48 h

`C[C@@H]1CC[C@H]2[C@@H](C)C(CSCCCSCC3O[C@H]4O[C@@]5(C)CC[C@H]6[C@H](C)CC[C@@H]([C@H]3C)[C@@]46OO5)O[C@H]3O[C@@]4(C)CC[C@@H]1[C@]32OO4` (stereo partly specified) was tested, and the IC50 [1] was 13 nM.
With `C[C@H]1[C@@H](CCCCNC(=O)CC[C@H]2O[C@H]3O[C@@]4(C)CC[C@H]5[C@H](C)CC[C@@H]([C@H]2C)[C@@]35OO4)O[C@H]2O[C@@]3(C)CC[C@H]4[C@H](C)CC[C@@H]1[C@@]24OO3` the IC50 [2] was > 30200 nM, the IC50 [3] was > 30200 nM and the IC50 [4] was > 30200 nM. For the same compound, the IC50 [5] was > 30200 nM and the IC50 [6] was 30500 nM.
Work on `C[C@@H]1CC[C@H]2[C@@H](C)C(CCOC(=O)CCC(=O)OCCC3O[C@H]4O[C@@]5(C)CC[C@H]6[C@H](C)CC[C@@H]([C@H]3C)[C@@]46OO5)O[C@H]3O[C@@]4(C)CC[C@@H]1[C@]32OO4` (stereo partly specified) yielded an IC50 [7] of 1.4 nM and an IC50 [8] of 1.8 nM.
Work on `C[C@@H]1CC[C@H]2[C@@H](C)C(OCCN/C(=N/c3cc(C(F)(F)F)ccc3F)NCCOC3O[C@@H]4O[C@]5(C)CC[C@@H]6[C@@H](C)CC[C@H]([C@@H]3C)[C@]46OO5)O[C@H]3O[C@@]4(C)CC[C@@H]1[C@]32OO4` (stereo partly specified) yielded an IC50 [9] of 1420 nM, an IC50 [10] of 240 nM and an IC50 [6] of 20 nM.
Compound `C[C@@H]1CC[C@H]2[C@@H](C)C(CCOC(=O)c3ccc(C(=O)OCCC4O[C@H]5O[C@@]6(C)CC[C@H]7[C@H](C)CC[C@@H]([C@H]4C)[C@@]57OO6)cc3)O[C@H]3O[C@@]4(C)CC[C@@H]1[C@]32OO4` (stereo partly specified) has an IC50 [1] of 4.6 nM.
`C[C@@H]1CC[C@H]2[C@@H](C)C(OCCN/C(=N/c3ccc(Cl)cc3Cl)NCCOC3O[C@@H]4O[C@]5(C)CC[C@@H]6[C@@H](C)CC[C@H]([C@@H]3C)[C@]46OO5)O[C@H]3O[C@@]4(C)CC[C@@H]1[C@]32OO4` (stereo partly specified) showed an IC50 [9] of 2080 nM, an IC50 [10] of 640 nM and an IC50 [6] of 50 nM.
`C[C@@H]1CC[C@H]2[C@@H](C)C(CSCCCCSC3O[C@H]4O[C@@]5(C)CC[C@H]6[C@H](C)CC[C@@H]([C@H]3C)[C@@]46OO5)O[C@H]3O[C@@]4(C)CC[C@@H]1[C@]32OO4` (stereo partly specified) showed an IC50 [1] of 5.7 nM.
For `C[C@@H]1CC[C@H]2[C@@H](C)C(OCCN/C(=N/c3cccc(Cl)c3)NCCOC3O[C@@H]4O[C@]5(C)CC[C@@H]6[C@@H](C)CC[C@H]([C@@H]3C)[C@]46OO5)O[C@H]3O[C@@]4(C)CC[C@@H]1[C@]32OO4` (stereo partly specified), the IC50 [9] was 1170 nM, the IC50 [10] was 720 nM and the IC50 [6] was 100 nM.
With `C[C@@H]1CC[C@H]2[C@@H](C)C(CCOC(=O)c3ccccc3C(=O)OCCC3O[C@H]4O[C@@]5(C)CC[C@H]6[C@H](C)CC[C@@H]([C@H]3C)[C@@]46OO5)O[C@H]3O[C@@]4(C)CC[C@@H]1[C@]32OO4` (stereo partly specified) the IC50 [7] was 1.6 nM and the IC50 [8] was 2.6 nM.
Compound `C[C@@H]1CC[C@H]2[C@@H](C)C(CCOC(=O)CCCC(=O)OCCC3O[C@H]4O[C@@]5(C)CC[C@H]6[C@H](C)CC[C@@H]([C@H]3C)[C@@]46OO5)O[C@H]3O[C@@]4(C)CC[C@@H]1[C@]32OO4` (stereo partly specified) has an IC50 [7] of 1.1 nM and an IC50 [8] of 2.4 nM.
In the case of `C[C@@H]1CC[C@H]2[C@@H](C)C(CCS(=O)(=O)CCCS(=O)(=O)CCC3O[C@@H]4O[C@]5(C)CC[C@@H]6[C@@H](C)CC[C@H]([C@@H]3C)[C@]46OO5)O[C@H]3O[C@@]4(C)CC[C@@H]1[C@]32OO4` (stereo partly specified), the IC50 [2] is reported as 7360 nM, the IC50 [3] is reported as 11200 nM and the IC50 [4] is reported as 11000 nM. It also gave an IC50 [5] of 13100 nM and an IC50 [6] of 500 nM.
For `C[C@@H]1CC[C@H]2[C@@H](C)C(CSCCSCC3O[C@H]4O[C@@]5(C)CC[C@H]6[C@H](C)CC[C@@H]([C@H]3C)[C@@]46OO5)O[C@H]3O[C@@]4(C)CC[C@@H]1[C@]32OO4` (stereo partly specified), the IC50 [1] was 7.4 nM.
`C[C@@H]1CC[C@H]2[C@@H](C)C(OCCN/C(=N/c3ccc(OC(F)(F)F)cc3)NCCOC3O[C@@H]4O[C@]5(C)CC[C@@H]6[C@@H](C)CC[C@H]([C@@H]3C)[C@]46OO5)O[C@H]3O[C@@]4(C)CC[C@@H]1[C@]32OO4` (stereo partly specified) showed an IC50 [10] of 170 nM and an IC50 [6] of 240 nM.
With `C[C@@H]1CC[C@H]2[C@@H](C)C(CCOCc3ccccc3COCCC3O[C@H]4O[C@@]5(C)CC[C@H]6[C@H](C)CC[C@@H]([C@H]3C)[C@@]46OO5)O[C@H]3O[C@@]4(C)CC[C@@H]1[C@]32OO4` (stereo partly specified) the IC50 [7] was 1.3 nM and the IC50 [8] was 2.9 nM.
In the case of `C[C@@H]1CC[C@H]2[C@@H](C)C(CCNC(=O)CCC(N)C(=O)NCCC3O[C@H]4O[C@@]5(C)CC[C@H]6[C@H](C)CC[C@@H]([C@H]3C)[C@@]46OO5)O[C@H]3O[C@@]4(C)CC[C@@H]1[C@]32OO4` (stereo partly specified), the IC50 [2] is reported as 20900 nM, the IC50 [3] is reported as > 27300 nM and the IC50 [4] is reported as 21300 nM. The IC50 [5] was 22500 nM and the IC50 [6] was 8900 nM.
For `C[C@@H]1CC[C@H]2[C@@H](C)C(OCCN/C(=N/c3ccc(C(F)(F)F)cc3)NCCOC3O[C@@H]4O[C@]5(C)CC[C@@H]6[C@@H](C)CC[C@H]([C@@H]3C)[C@]46OO5)O[C@H]3O[C@@]4(C)CC[C@@H]1[C@]32OO4` (stereo partly specified), the IC50 [9] was 1180 nM, the IC50 [10] was 680 nM and the IC50 [6] was 60 nM.
Compound `C[C@@H]1CC[C@H]2[C@@H](C)C(CCOCc3cccc(COCCC4O[C@H]5O[C@@]6(C)CC[C@H]7[C@H](C)CC[C@@H]([C@H]4C)[C@@]57OO6)c3)O[C@H]3O[C@@]4(C)CC[C@@H]1[C@]32OO4` (stereo partly specified) has an IC50 [7] of 2.1 nM and an IC50 [8] of 2.7 nM.
In the case of `C[C@@H]1CC[C@H]2[C@@H](C)C(CCOC(=O)c3cccc(C(=O)OCCC4O[C@H]5O[C@@]6(C)CC[C@H]7[C@H](C)CC[C@@H]([C@H]4C)[C@@]57OO6)c3)O[C@H]3O[C@@]4(C)CC[C@@H]1[C@]32OO4` (stereo partly specified), the IC50 [1] is reported as 42.2 nM.
Compound `C[C@@H]1CC[C@H]2[C@@H](C)C(CSCCCCCSCC3O[C@@H]4O[C@]5(C)CC[C@@H]6[C@@H](C)CC[C@H]([C@@H]3C)[C@]46OO5)O[C@H]3O[C@@]4(C)CC[C@@H]1[C@]32OO4` (stereo partly specified) has an IC50 [1] of 12 nM.
In the case of `C[C@H]1[C@@H](CCNC(=O)CC[C@H]2O[C@H]3O[C@@]4(C)CC[C@H]5[C@H](C)CC[C@@H]([C@H]2C)[C@@]35OO4)O[C@H]2O[C@@]3(C)CC[C@H]4[C@H](C)CC[C@@H]1[C@@]24OO3`, the IC50 [2] is reported as 8 nM, the IC50 [3] is reported as 12100 nM and the IC50 [4] is reported as 16800 nM. It also gave an IC50 [5] of 10100 nM and an IC50 [6] of 1100 nM.
`C[C@@H]1CC[C@H]2[C@@H](C)C(OCCN/C(=N/c3cccc(Br)c3)NCCOC3O[C@@H]4O[C@]5(C)CC[C@@H]6[C@@H](C)CC[C@H]([C@@H]3C)[C@]46OO5)O[C@H]3O[C@@]4(C)CC[C@@H]1[C@]32OO4` (stereo partly specified) was tested, and the IC50 [9] was 1570 nM, the IC50 [10] was 360 nM and the IC50 [6] was 400 nM.
`CO[C@@]12[C@H](COC(N)=O)C3=C(C(=O)C(C)=C(N)C3=O)N1C[C@@H]1N[C@@H]12` [MITOMYCIN] was tested, and the IC50 [2] was 60 nM, the IC50 [3] was 60 nM and the IC50 [4] was 60 nM. It also gave an IC50 [5] of 60 nM and an IC50 [6] of 60 nM.
`C[C@@H]1CC[C@H]2[C@@H](C)C(OCCN/C(=N/c3ccc(Cl)cc3)NCCOC3O[C@@H]4O[C@]5(C)CC[C@@H]6[C@@H](C)CC[C@H]([C@@H]3C)[C@]46OO5)O[C@H]3O[C@@]4(C)CC[C@@H]1[C@]32OO4` (stereo partly specified) gave an IC50 [9] of 1260 nM, an IC50 [10] of 980 nM and an IC50 [6] of 100 nM.
